From patent publication US4127722A, “Benzhydrylsulphinyl derivatives” (Laboratoire L. Lafon, priority 1975, dated 1978)

Tests used:
[1] = test system: stereotype behaviour induced by amphetamine; experiment: Interaction with amphetamine; assay type: in vivo, rats; settings: for boosting of stereotypies produced by amphetamine-type compounds: in words; for duration of the stereotypies brought about by amphetamine: rat, in vivo
Experimental: Amphetamine (2 mg/kg, given intraperitoneally) is injected 30 minutes after the administration of CRL 40,028 (6 rats/dose).

[2] = test system: hypothermia, trembling and peripheral cholinergic symptoms brought about by oxotremorine; experiment: Interaction with oxotremorine; assay type: in vivo, mice; settings: for effect towards oxotremorine: in words
Experimental: Mice (6 per dose) are given an intraperitoneal injection of 0.5 mg/kg of oxotremorine 30 minutes after the administration of CRL 40,028.

[3] = General behaviour / psychopharmacological spectrum (species not stated); assay type: in vivo; settings: for mydriatic effect: in words
[4] = test system: mice; experiment: General behaviour, mice; assay type: in vivo; settings: mice
[5] = test system: central nervous system; experiment: Pharmacological tests: action on the central nervous system, overall profile; assay type: in vivo; settings: for action on the central nervous system: in words
Experimental: The results of the pharmacological tests which were carried out have been summarised below.

[6] = Solubility in water
[7] = test system: mice; experiment: Toxicity, intraperitoneal administration, mice; assay type: in vivo; settings: intraperitoneal administration
[8] = test system: residual motility; experiment: Residual motility; assay type: in vivo, mice
[9] = test system: hypothermia and ptosis produced by reserpine; experiment: Interaction with reserpine; assay type: in vivo, mice
Experimental: Batches of 6 mice are given an intraperitoneal injection of reserpine (2.5 mg/kg) 4 hours before the administration of CRL 40,028.

[10] = test system: passes which entail pain; experiment: Four plate test; assay type: in vivo, mice; settings: in words
Experimental: (§1) The test is carried out on batches of 20 mice, 30 minutes after the administration of CRL 40,028.

[11] = test system: convulsive effects of the electric shock; experiment: Electric shock; assay type: in vivo, mice
Experimental: as §1

[12] = test system: spontaneous motility; experiment: Spontaneous motility (actimetry); assay type: in vivo, mice; settings: mice
Experimental: CRL 40,028 increases the motor activity of the animals from a dose of 16 mg/kg onwards. As this effect is representative of the activity of CRL 40,028, attempts have been made to obtain its kinetics more precisely. […]

[13] = test system: rats; experiment: General behaviour, rats; assay type: in vivo
[14] = test system: groups of mice; experiment: Group toxicity; settings: Table IV, graded symbols
[15] = test system: passes which entail pain; settings: mentioned for comparison; cited from earlier work
[16] = at doses close to the toxic dose; mentioned for comparison; cited from earlier work
[17] = at medium doses, very moderate intensity

Compound: Cl.NC(C[S+]([O-])C(c1ccccc1)c1ccccc1)=NO (stereo not shown) [CRL 40,048, Benzhydrylsulphinylacetamidoxime hydrochloride]
- boosting of stereotypies produced by amphetamine-type compounds [1]: boosts stereotypies produced by amphetamine-type compounds
- effect towards oxotremorine [2]: antagonist action on oxotremorine
- mydriatic effect [3]: absence of a mydriatic effect
- hyper-reactivity to the touch [4]: hyper-reactivity to the touch
- action on the central nervous system [5]: acts only on the central nervous system
- solubility [6]: 100 mg/mL

Compound: Cl.[O-][S+](CCN1CCOCC1)C(c1ccccc1)c1ccccc1 (stereo not shown) [CRL 40,221, N-[2-(Benzhydrylsulphinyl)-ethyl]-morpholine hydrochloride]
- LD-O [7]: greater than 512 mg/kg
- motor activity in mice accustomed to their chamber ([8]; mice): a resumption of motor activity
- boosting of stereotypies produced by amphetamine-type compounds [1]: a (metabolic) boosting of the stereotypies
- anti-reserpine effect ([9]; in words): an anti-reserpine effect
- effect towards oxotremorine [2]: an anti-oxotremorine effect
- effect in the four plate test [10]: a certain effect in the four plate test
- protection against convulsions produced by electric shock ([11]; in words): a protection against convulsions
- sedation ([3]; at doses close to the toxic dose): a sedation at doses close to the toxic dose
- hypothermia ([3]; at high doses): hypothermia at high doses
- mydriatic effect [3]: a considerable mydriasis
- psychopharmacological spectrum ([5]; comparison with tricyclic anti-depressants): close to that of tricyclic anti-depressants

Compound: Cl.[O-][S+](CCN1CCCCC1)C(c1ccccc1)c1ccccc1 (stereo not shown) [CRL 40,222, N-[2-(Benzhydrylsulphinyl)-ethyl]-piperidine hydrochloride]
- LD-O [7]: greater than 128 mg/kg
- spontaneous motility ([12]; only at a low dose of 1 mg/kg): an increase in the spontaneous motility
- residual motility ([8]; mice, 8 mg/kg): a stimulation of the residual motility
- duration of the stereotypies brought about by amphetamine [1]: an increase in the duration of the stereotypies
- anti-reserpine effect ([9]; in words): absence of an anti-reserpine effect
- effect towards oxotremorine [2]: a moderate action towards oxotremorine
- action on the central nervous system [5]: acts on the central nervous system

Compound: O=C(CC[S+]([O-])C(c1ccccc1)c1ccccc1)NO (stereo not shown) [CRL 40,260, 3-(Benzhydrylsulphinyl)-propionohydroxamic acid]
- LD-O [7]: greater than 1,024 mg/kg
- toxicity in words [7]: low toxicity
- spontaneous motility [12]: a reduction in the spontaneous motility
- hyper-reactivity [4]: a hyper-reactivity
- sedation, with hypomotility [4]: a sedation, with hypomotility
- hyper-reactivity [13]: a hyper-reactivity
- sedation, with hypomotility [13]: a sedation, with hypomotility

Compound: Cl.NC(CC[S+]([O-])C(c1ccccc1)c1ccccc1)=NO (stereo not shown) [CRL 40,261, 3-(Benzhydrylsulphinyl)-propionamidoxime hydrochloride]
- LD-O [7]: greater than 256 mg/kg
- spontaneous motility ([12]; 2 mg/kg, 8 mg/kg and 32 mg/kg): an increase in the spontaneous motility
- duration of the stereotypies brought about by amphetamine [1]: an increase in the duration of the stereotypies
- hypothermia due to reserpine ([9]; in words): an increase in the hypothermia due to reserpine
- palpebral ptosis induced by reserpine ([9]; in words): without alteration of the palpebral ptosis
- effect towards oxotremorine [2]: moderate effect towards oxotremorine

Compound: Cl.NC(CCC[S+]([O-])C(c1ccccc1)c1ccccc1)=NO (stereo not shown) [CRL 40,277, 4-(Benzhydrylsulphinyl)-butyramidoxime hydrochloride]
- LD-O [7]: greater than 512 mg/kg
- residual hypermotility [8, 17]: inconstant residual hypermotility
- boosting of the effect of amphetamine [1, 17]: boosting of the effect of amphetamine
- hypothermic effects of reserpine ([9]; at high doses): aggravation of the hypothermic effects of reserpine
- hypothermic effects of oxotremorine ([2]; at high doses): aggravation of the hypothermic effects
- lethal effects of the electric shock ([11]; at high doses): an aggravation of the lethal effects of the electric shock
- hypomotility ([3]; at high doses): hypomotility
- hypothermia ([3]; at high doses): hypothermia
- hyper-reactivity [3, 17]: hyper-reactivity
- action on the central nervous system [5]: acts on the central nervous system

Compound: O=C(CCC[S+]([O-])C(c1ccccc1)c1ccccc1)NO (stereo not shown) [CRL 40,278, 4-(Benzhydrylsulphinyl)-butyrohydroxamic acid]
- LD-O [7]: greater than 1,024 mg/kg
- action on the central nervous system [5]: acts on the central nervous system

Compound: Cn1c(=O)c2c(ncn2C)n(C)c1=O [Caffeine, reference compound]
- Anti-reserpine action (ptosis) ([9]; Table IV, graded symbols): 0
- Anti-oxotremorine action (peripheral) ([2]; Table IV, graded symbols): 0
- Anti-oxotremorine action (trembling) ([2]; Table IV, graded symbols): 0
- Group toxicity [14]: 0

Compound: CN(C)CCC=C1c2ccccc2CCc2ccccc21 [amitriptyline]
- effect in the four plate test (comparison drug) [15]: a certain effect in the four plate test
- sedation (comparison drug) [16]: not

Compound: CN(C)CCCN1c2ccccc2CCc2ccccc21 [imipramine]
- effect in the four plate test (comparison drug) [15]: a certain effect in the four plate test

Compound: CNCCC=C1c2ccccc2CCc2ccccc21 [nortriptyline]
- effect in the four plate test (comparison drug) [15]: not
- sedation (comparison drug) [16]: a sedation at doses close to the toxic dose
